This note sets out measurements from patent publication US6495584B1, “Use of 3-(1H-imidazol-4-ylmethyl)-indan-5-ol in the manufacture of a medicament for intraspinal, intrathecal or epidural administration” (Orion Corporation, priority 1998, dated 2002).

Where two headings read alike, the source gives them in different places. Where only a bound is given, the exact number is not on record here.

The test system of series [1] is rat. The note with it: Sprague-Dawley, in vivo.
Excerpt: (§4) The rats (Sprague-Dawley, B&K, Sollentuna, Sweden) were anaesthetized by midazolam and fentanyl-fluanisone combination anaesthesia and then chronically catheterized according to the method described by Yaksh and Rudy (Physiology & Behaviour 17,1031-1036, 1976). Briefly, the atlanto-occipital membrane of the spine (directly below the skull) was incised. A polyethylene catheter (PE10 Intramedic, USA) filled with sterile saline was carefully and slowly pushed 8 cm into the spinal cavity. The end of the catheter is known to reach the close proximity of the lumbar enlargement of the spine. The location of the end of the catheter was tested by administering 0.5 mg lidocain approximately 3 days after catheterization. If both hindlegs were paralyzed, the rat was used in the drug tests.
Effects on gastrointestinal motility were measured in separate animals as follows (the charcoal propulsion test). The rats (8/group) were fasted overnight and were randomized according to the latin square design. 30 minutes after the administration of the drugs, a 10% charcoal suspension in 0.25% Na-carboxy-methylcellulose was administered perorally by a gavage. […] The distance of the charcoal suspension from the pylorus in the intestine was measured. […] The ED50 value of the dose-response graph was determined by the Graph Pad Prism v. […]
Series [2] has as its system rat. Kind of series: Tail-flick analgesia test. In kind it is in vivo. As to the method:
(§1) There were 8 rats in each group tested.
Tail-flick analgesia was tested by a tail-flick analgesy meter (Ugo Basile, Italy). The analgesia testing was done no earlier than four days after the catheterization. The rats were always habituated to the immobilization chambers that were used in the analgesia measurements. The tail of the rat was outside the chamber and it was placed on the heating spot of the apparatus. Thus, the hot infrared beam would hit the tail. When the rat reacted and moved the tail away from the beam, the analgesy meter automatically measured the latency of the tail-withdrawal. The tail-flick measurement was always repeated three times, one after another, to diminish the effect of a possible unspecific reaction. […] The maximal latency (cut-off time) was set to 5 seconds in order to prevent burns of the tail. The predrug tail-flick latencies were first measured, and then the rats were administered 10 μl of the drug solution by a Hamilton syringe. Immediately thereafter the catheter was washed with 10 μl of sterile saline, and the tip was sealed by a lighter. The analgesia was tested after 30 minutes from the administration of the drug by measuring tail-flick analgesia as described above.
The tail-flick analgesia data were represented as MPE% values (maximum possible effect %). The tail-flick latencies (mean of three measurements) were calculated as MPE% values as follows: (postdrug latency−predrug latency)/(cut-off time−predrug latency)×100%. The dose-response curves were drawn of the MPE% values, and the dose was on a logarithmic scale (see FIG. 1). […] 1.03 (San Diego, USA) software.
(§2) The analgesic activity and sedative effect after intravenous (to the tail vein) and subcutaneous administration were studied according to the methods described in Example 2.

Series [3] is described as follows: physchem. As to the method: The hydrochloride salts of the above compounds were shaken for 90 minutes in a separatory funnel at room temperature with equal volumes (1:1, v/v) of an organic phase (water saturated 1-octanol) and an aqueous solution (0.1 M HCI or 67 mM phosphate buffer pH 7.4), separating the two phases. The quantitations of the amounts of the studied compounds were performed by the RP-HPLC (reverse phase high pressure liquid chromatography) technique. […] As a mobile phase, methanol: 15 mM phosphate buffer pH2 at the ratio 50:50 (v/v) was used.
The partition coefficient (P) is a ratio of the equilibrium concentrations of a solute in a lipophilic environment (1-octanol) and water (P=coct/cwater). The logarithm of the partition coefficient (logP) is used as a lipophilicity parameter for a neutral molecule. D is the partition coefficient measured at a pH where the molecules are partly or totally ionized.

The test system of series [4] is rat. Kind of series: Motor coordination: rotarod treadmill. The note with it: intrathecal, 15 minutes after injection.
Excerpt: as §4
(§5) The effect on motor coordination was evaluated by a rotarod treadmill for rats (Ugo Basile, Italy). It consists of four drums (diameter of 70 mm) separated by five flanges. The drums were adjusted to rotate 4 revolutions per minute. The rod was rotated against the direction of the rat, so it had to walk forward to stay on the rod. […]
(§6) Fifteen minutes after the drug injection, the rat was placed on the rotarod apparatus, and the falling time was measured. […] The dose-response curves were drawn on a logarithmic scale, and the ED50 values were determined graphically from these.
Series [5] in a line: in vivo. The note with it: Sprague-Dawley, rat. As to the method:
as §1
(§3) Sedative effects (effects on motor activity) were measured in a polypropylene animal cage (38×22×15 cm) with a transparent polypropylene lid by Photobeam Activity System (PAS, Cage Rack, San Diego Instruments, San Diego, USA). The system consists of 16 separate enclosures connected to a computer control unit. There were three photobeams in each enclosure. The enclosures surrounded the cage at the height of 5 cm. The breaking of beams was counted as locomotor activity.
as §2

Series [6] has as its system rat. Kind of series: in vivo. The protocol: as §1, §3, §2
For series [7], the system named is rat. The note with it: Sprague-Dawley, in vivo, 15 min.
Excerpt: as §4, §5, §6

In turn, `Oc1ccc2c(c1)C(Cc1c[nH]cn1)CC2` (centres unmarked) [Compound A, 3-(1H-imidazol-4-ylmethyl)-indan-5-ol] yielded an ED50 Inhib. of GI motility in series [1] of 5.7 µg/rat. The ED50 in series [2] (central, intrathecal (it), Table 2 result per rat multiplied by 3) is 0.0021 mg/kg; in series [2] (intravenous (iv)), above 0.03 mg/kg; in series [2] (subcutaneous (sc)), above 0.3 mg/kg. The “ED50 Analgesia (tail-flick test)” value in series [2] (intrathecal, 30 minutes after administration) came out at 0.7 µg/rat. For the same compound, the log distribution coefficient (logD) at 90 min in series [3] (pH 1) was -0.69; in series [3] (pH 7.4) it was 1.91. The same compound registered an ED50 Loss of motor coordin. (decrease in rotarod performance) in series [4] above 30 µg/rat. Moreover, the ED50 at 10 min in series [5] amounted to 0.09 mg/kg; in series [5] (sc), 0.08 mg/kg. For the same compound, the “Sedation at an analgesic dose” value in series [6] is “not to induce sedation”.

In series [1], `Clc1cccc(Cl)c1N=C1NCCN1` [Compound B, clonidine, reference compound] showed an ED50 Inhib. of GI motility of 3.5 µg/rat. Besides, the “ED50 Loss of motor coordin. (decrease in rotarod performance)” value in series [7] is listed as above 10 g/rat.

For “clonidine [Compound B, reference compound]”, the “ED50 Analgesia (tail-flick test)” value in series [2] (in vivo) amounted to 6.4 µg/rat.
